Source: US20220402950A1, “SUBSTITUTED BENZIMIDAZOLES AS PAD4 INHIBITORS” (BRISTOL-MYERS SQUIBB COMPANY, priority 2018, published 2022)

What follows are compounds tested against human PAD4 (hPAD4) (Homo sapiens, UniProt Q9UM07) (assay: RFMS Human PAD4 Functional Assay). Settings: hPAD4 RFMS IC50, human PAD4, rapid-fire mass spectrum (RFMS) assay; 5 nM hPAD4, 250 μM BAEE.
Type: biochemical
Description: RFMS Human PAD4 Functional Assay:
Compounds were solubilized in 100% DMSO to achieve a 10 mM compound concentration. Compound stock solutions were stored at RT. A series of dilutions were prepared in DMSO and mixed 8 times with 20 μL mixing volume. Final top concentration of compound in the assay is 50 μM.
0.13 μL of compound solution was added to 13 μL of 10 nM PAD4 in assay buffer. After 30 min 13 μl of 500 μM of BAEE was added in 25 mM hepes, pH 7.5, 5 mM NaCl, 1 mM DTT, 0.2 mg/ml BSA, 0.01% CHAPS, 50 μM Calcium, 5 μM TPEN was added and the reaction incubated for 90 min at 37° C. The enzymatic reaction was quenched by addition of 15 μl of 6.1N TCA, 100% Final Concentration is 20%, 35 μl of 8.5 mM phenyl glyoxal (final concentration 4 mM) is then added and the reaction is incubated for 30 min at 37° C.
After 30 minutes the plates are spun down to remove all precipitate. The enzyme reaction was quenched with an equal volume of methanol containing internal standard (modified citrulline). Samples were loaded onto the Rapid Fire RF300 system (Agilent) wherein they were first sipped for 1000 ms and then directly loaded to a C18 separations cartridge using a mixture of acetonitrile containing 0.01% formic acid for 3000 ms desalting. The flow rate of the mobile phase was 1.5 ml/min.
The dwell time for each transition was set at 200 ms, and the ESI voltage was used at 5500 with a source temperature of 400° C. Extracted ion peaks for each transition were integrated using the Rapid Fire Integrator software. Peak area of analyte was normalized with internal standard.).

human PAD4 (hPAD4), sequence (Q9UM07 whole entry): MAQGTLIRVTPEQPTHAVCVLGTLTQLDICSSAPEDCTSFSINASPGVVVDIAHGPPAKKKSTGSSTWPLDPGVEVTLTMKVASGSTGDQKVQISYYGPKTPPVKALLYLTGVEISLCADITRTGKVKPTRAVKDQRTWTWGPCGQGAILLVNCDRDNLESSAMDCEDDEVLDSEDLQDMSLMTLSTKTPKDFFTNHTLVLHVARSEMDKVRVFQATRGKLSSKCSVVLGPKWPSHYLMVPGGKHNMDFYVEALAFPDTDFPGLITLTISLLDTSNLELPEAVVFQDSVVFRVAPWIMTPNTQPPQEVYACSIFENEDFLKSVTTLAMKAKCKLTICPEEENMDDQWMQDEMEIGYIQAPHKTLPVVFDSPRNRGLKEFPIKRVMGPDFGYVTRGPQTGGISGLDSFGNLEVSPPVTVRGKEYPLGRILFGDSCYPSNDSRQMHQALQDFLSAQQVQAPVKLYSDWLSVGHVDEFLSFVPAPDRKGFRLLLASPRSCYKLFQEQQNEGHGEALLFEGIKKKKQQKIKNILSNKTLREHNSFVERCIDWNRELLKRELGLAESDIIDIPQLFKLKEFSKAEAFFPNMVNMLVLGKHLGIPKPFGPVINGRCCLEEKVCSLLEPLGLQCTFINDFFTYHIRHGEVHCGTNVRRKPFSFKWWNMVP

`COc1cc(C(=O)N2C[C@H]3CC[C@@H]2[C@@H]3N)cc2nc(-c3cc4cccc(-c5ccc(O)c(Cl)c5)c4n3CC3CC3)n(C)c12` [Example 92, 4-(2-{5-[(1R,4R,7R)-7-amino-2-azabicyclo[2.2.1]heptane-2-carbonyl]-7-methoxy-1-methyl-1H-1,3-benzodiazol-2-yl}-1-(cyclopropylmethyl)-1H-indol-7-yl)-2-chlorophenol] and `COc1cc(C(=O)N2C[C@H]3CC[C@@H]2[C@@H]3N)cc2nc(-c3cc4cccc(-c5ccc(O)cc5Cl)c4n3CC3CC3)n(C)c12` [Example 93, 4-(2-{5-[(1R,4R,7R)-7-amino-2-azabicyclo[2.2.1]heptane-2-carbonyl]-7-methoxy-1-methyl-1H-1,3-benzodiazol-2-yl}-1-(cyclopropylmethyl)-1H-indol-7-yl)-3-chlorophenol] are within 1.5-fold of each other in IC50: 0.058 µM for the first, 0.053 µM for the second.

Compared with `COc1cc(C(=O)N2C[C@H](N)C[C@@H](F)C2)cc2nc(-c3cc4cccc(C5CN(C(C)=O)C5)c4n3C)n(Cc3cnn(C)c3)c12` [Example 215, 1-(3-(2-(5-((3R,5R)-3-amino-5-fluoropiperidine-1-carbonyl)-7-methoxy-1-((1-methyl-1H-pyrazol-4-yl)methyl)-1H-benzo[d]imidazol-2-yl)-1-methyl-1H-indol-7-yl)azetidin-1-yl)ethane-1-one], `COc1cc(C(=O)N2C[C@H](N)C[C@@H](F)C2)cc2nc(-c3cc4cccc(C5CN(C(C)=O)C5)c4n3CC3CC3)n(Cc3cnn(C)c3)c12` [Example 212, 1-(3-(2-(5-((3R,5R)-3-amino-5-fluoropiperidine-1-carbonyl)-7-methoxy-1-((1-methyl-1H-pryazol-4-yl)methyl)-1H-benzo[d]imidazol-2-yl)-1-(cyclopropylmethyl)-1H-indol-7-yl)azetidin-1-yl)ethane-1-one] is 5.2-fold lower in IC50: 0.183 µM for the first, 0.035 µM for the second.

Compared with `COc1cc(C(=O)N2C[C@H]3CC[C@@H]2[C@@H]3N)cc2nc(-c3cc4cccc(-c5ccc(C(N)=O)cc5)c4n3CC3CC3)n(C)c12` [Example 124, 4-(2-(5-((1R,4R,7R)-7-amino-2-azabicyclo[2.2.1]heptane-2-carbonyl)-7-methoxy-1-methyl-1H-benzo[d]imidazol-2-yl)-1-(cyclopropylmethyl)-1H-indol-7-yl)benzamide], `COc1cc(C(=O)N2C[C@H]3CC[C@@H]2[C@@H]3N)cc2nc(-c3cc4cccc(-c5ccc(C(N)=O)nc5)c4n3CC3CC3)n(C)c12` [Example 194, 5-(2-(5-((1R,4R,7R)-7-amino-2-azabicyclo[2.2.1]heptane-2-carbonyl)-7-methoxy-1-methyl-1H-benzo[d]imidazol-2-yl)-1-(cyclopropylmethyl)-1H-indol-7-yl)picolinamide] is 5.8-fold higher in IC50: 0.025 µM for the first, 0.146 µM for the second. The first is the more potent here.

Compared with `COc1cc(C(=O)N2C[C@H]3CC[C@@H]2[C@@H]3N)cc2nc(-c3cc4cccc(C5COC5)c4n3CC3CC3)n(C)c12` [Example 25, (1R,4R,7R)-2-{2-[1-(cyclopropylmethyl)-7-(oxetan-3-yl)-1H-indol-2-yl]-7-methoxy-1-methyl-1H-1,3-benzodiazole-5-carbonyl}-2-azabicyclo[2.2.1]heptan-7-amine], `COc1cc(C(=O)N2C[C@H]3CC[C@@H]2[C@@H]3N)cc2nc(-c3cc4cccc(C5CN(C(=O)CO)C5)c4n3CC3CC3)n(C)c12` [Example 82, 1-[3-(2-{5-[(1R,4R,7R)-7-amino-2-azabicyclo[2.2.1]heptane-2-carbonyl]-7-methoxy-1-methyl-1H-1,3-benzodiazol-2-yl}-1-(cyclopropylmethyl)-1H-indol-7-yl)azetidin-1-yl]-2-hydroxyethan-1-one] is 6.3-fold lower in IC50: 0.063 µM for the first, 0.01 µM for the second. The second is the more potent here.

`COc1cc(C(=O)N2C[C@H]3CC[C@@H]2[C@@H]3N)cc2nc(-c3cc4cccc(C5CC(C(=O)N6CCCC6)C5)c4n3CC3CC3)n(C)c12` (single isomer, unassigned) [Example 50] and `COc1cc(C(=O)N2C[C@H]3CC[C@@H]2[C@@H]3N)cc2nc(-c3cc4cccc(C5CCN(C(=O)C(C)OC)CC5)c4n3CC3CC3)n(C)c12` (stereo partly drawn) [Example 238, 1-(4-(2-(5-((1R,4R,7R)-7-amino-2-azabicyclo[2.2.1]heptane-2-carbonyl)-7-methoxy-1-methyl-1H-benzo[d]imidazol-2-yl)-1-(cyclopropylmethyl)-1H-indol-7-yl)piperidin-1-yl)-2-methoxypropan-1-one] are within 1.5-fold of each other in IC50: 0.081 µM for the first, 0.104 µM for the second.

`COc1cc(C(=O)N2C[C@H]3CC[C@@H]2[C@@H]3N)cc2nc(-c3cc4cccc(CCC5CCCNC5)c4n3CC3CC3)n(C)c12` (stereo partly drawn) [Example 32, (1R,4R,7R)-2-{2-[1-(cyclopropylmethyl)-7-[2-(piperidin-3-yl)ethyl]-1H-indol-2-yl]-7-methoxy-1-methyl-1H-1,3-benzodiazole-5-carbonyl}-2-azabicyclo[2.2.1]heptan-7-amine] and `COc1cc(C(=O)N2C[C@H]3CC[C@@H]2[C@@H]3N)cc2nc(-c3cc4cccc(-c5ccc6c(c5)CC(=O)N6)c4n3CC3CC3)n(C)c12` [Example 97, 2′-{5-[(1R,4R,7R)-7-amino-2-azabicyclo[2.2.1]heptane-2-carbonyl]-7-methoxy-1-methyl-1H-1,3-benzodiazol-2-yl}-1′-(cyclopropylmethyl)-2,3-dihydro-1H,1′H-[5,7′-biindole]-2-one] are within 1.5-fold of each other in IC50: 0.032 µM for the first, 0.023 µM for the second.

First: COc1cc(C(=O)N2C[C@H]3CC[C@@H]2[C@@H]3N)cc2nc(-c3cc4cccc(Nc5cn(C)nc5C)c4n3CC3CC3(F)F)n(C)c12 (stereo partly drawn) [Example 178, ((1R,4R,7R)-7-amino-2-azabicyclo[2.2.1]heptan-2-yl)(2-(1-((2,2-difluorocyclopropyl)meth-yl)-7-((1,3-dimethyl-1H-pyrazol-4-yl)amino)-1H-indol-2-yl)-7-methoxy-1-methyl-1H-benzo[d]imidazol-5-yl)methanone]
Second: COc1cccc(NC(=O)N2CCC(c3cccc4cc(-c5nc6cc(C(=O)N7C[C@H]8CC[C@@H]7[C@@H]8N)cc(OC)c6n5C)n(CC5CC5)c34)CC2)c1 [Example 248, 4-(2-(5-((1R,4R,7R)-7-amino-2-azabicyclo[2.2.1]heptane-2-carbonyl)-7-methoxy-1-methyl-1H-benzo[d]imidazol-2-yl)-1-(cyclopropylmethyl)-1H-indol-7-yl)-N-(3-methoxyphenyl)piperi-dine-1-carboxamide]
The IC50 of the first is 2.8-fold higher: 0.056 µM for the first, 0.02 µM for the second.

`COc1cc(C(=O)N2C[C@H](N)C[C@@H](F)C2)cc2nc(-c3cc4cccc(-c5ccc(O)c(F)c5)c4n3CC3CC3)n(C)c12` [Example 206, ((3R,5R)-3-amino-5-fluoropiperidin-1-yl)(2-(1-(cyclopropylmethyl)-7-(3-fluoro-4-hydroxyphenyl)-1H-indol-2-yl)-7-methoxy-1-methyl-1H-benzo[d]imidazol-5-yl)methanone] was tested, and the IC50 was 0.145 µM.

Same assay, conditions: human PAD4, rapid-fire mass spectrum (RFMS) assay; 5 nM hPAD4, 250 μM BAEE; read-out: hPAD4 RFMS IC50

Going from `COc1cc(C(=O)N2C[C@H]3CC[C@@H]2[C@@H]3N)cc2nc(-c3cc4cccc(C5CCN(C(=O)N(C)C)CC5)c4n3CC3CC3)n(C)c12` [Example 188, 4-(2-(5-((1R,4R,7R)-7-amino-2-azabicyclo[2.2.1]heptane-2-carbonyl)-7-methoxy-1-methyl-1H-benzo[d]imidazol-2-yl)-1-(cyclopropylmethyl)-1H-indol-7-yl)-N,N-dimethylpiperidine-1-carboxamide] to `COc1cc(C(=O)N2C[C@H]3CC[C@@H]2[C@@H]3N)cc2nc(-c3cc4cccc(Nc5ccccc5CO)c4n3CC3CC3)n(C)c12` [compound 182, ((1R,4R,7R)-7-amino-2-azabicyclo[2.2.1]heptan-2-yl)(2-(1-(cyclopropylmethyl)-7-((2-(hydroxymethyl)phenyl)amino)-1H-indol-2 yl)-7-methoxy-1-methyl-1H-benzo[d]imidazol-5-yl)methanone], the IC50 rises from 0.027 µM to 0.191 µM (7.1-fold). The first is the more potent here.

Compared with “1-(2-(5-((1R,4R,7R)- 7-amino-2- azabicyclo[2.2.1]heptane- 2-carbonyl)-7- methoxy-1-methyl- 1H-benzo[d]imidazol- 2-yl)-1- (cyclopropylmethyl)- 1H-indol-7-yl)-N- (pyridin-3- yl)piperidine-1- carboxamide [Example 244]”, `COc1cc(C(=O)N2C[C@H]3CC[C@@H]2[C@@H]3N)cc2nc(-c3cc4cccc(C5CCCC(C(N)=O)C5)c4n3CC3CC3)n(C)c12` (single isomer, unassigned) [Example 86] is 2.1-fold higher in IC50: 0.019 µM for the first, 0.04 µM for the second. The first is the more potent here.

Compared with `CNC(=O)C1CC(c2cccc3cc(-c4nc5cc(C(=O)N6C[C@H](N)C[C@@H](F)C6)cc(OC)c5n4C)n(CC4CC4)c23)C1` (single isomer, unassigned) [Example 111], `COc1cc(C(=O)N2C[C@H]3CC[C@@H]2[C@@H]3N)cc2nc(-c3cc4cccc(C5CC(NC(C)=O)C5)c4n3CC3CC3)n(C)c12` (stereo partly drawn) [Example 57, N-[3-(2-{5-[(1R,4R,7R)-7-amino-2-azabicyclo[2.2.1]heptane-2-carbonyl]-7-methoxy-1-methyl-1H-1,3-benzodiazol-2-yl}-1-(cyclopropylmethyl)-1H-indol-7-yl)cyclobutyl]acetamide] is 7.6-fold lower in IC50: 0.076 µM for the first, 0.01 µM for the second. The second is the more potent here.
